Results from patent US8617879B2, “Apparatus for cell or tissue culture” (Agency for Science, Technology and Research, priority 2009, dated 2013).

Tested on: C3A cells
Experiment: APAP-induced hepatotoxicity IC50 measurement with robotic liquid handler
Assay type: cell-based
Conditions: Homo sapiens
Experimental: Using the human liver cancer cell line C3A, cultured in the bioreactor, IC50 value measurements were conducted with a robotic liquid handler (FIG. 16).

With `CC(=O)Nc1ccc(O)cc1` [APAP, acetaminophen] the IC50 (C3A cells cultured in Si3N4—SC (static)) was 80 mM, the IC50 (C3A cells cultured in Si3N4—SCP (Si3N4 sandwich perfusion in 96-well bioreactor)) was 71 mM and the IC50 (C3A cells cultured in collagen gel sandwich (static)) was 84.6 mM.
